Source: ChEMBL document CHEMBL4765295, “Synthesis, pharmacological profile and 2D-QSAR studies of curcumin-amino acid conjugates as potential drug candidates” (Eur J Med Chem, 2020)
In brackets after ≈: the same amount, converted by molar mass. Several values for one entry are separate records, joined by “and”; a condition that tells them apart may be missing. Equal values may be shown once.

Experiments:
Rattus norvegicus [1] = assay: Anti-inflammatory activity in Wistar rat assessed as inhibition of carrageenan-induced paw edema at 10 mg/kg, ip pretreated for 1 hr followed by carrageenan challenge and measured after 1 hr relative to control (reference value: 0.00 +/-0.02 %); format: functional; details: time 2 hrs
Salmonella typhimurium = assay: Antibacterial activity against Salmonella typhimurium ATCC 19430 incubated for 18 hrs by agar dilution assay; format: functional, Salmonella enterica subsp. enterica serovar Typhimurium; details: Salmonella enterica
Rattus norvegicus [2] = assay: Anti-inflammatory activity in Wistar rat assessed as inhibition of carrageenan-induced paw edema at 10 mg/kg, ip pretreated for 1 hr followed by carrageenan challenge and measured after 4 hr relative to indomethacin; format: functional; details: time 5 hrs
Rattus norvegicus [3] = assay: Antiinflammatory activity in Wistar rat model of carrageenan-induced paw edema assessed as reduction in thickness of paw edema at 10 mg/kg, ip pretreated for 1 hr followed by carrageenan challenge and measured after 24 hrs (reference value: 0.83 +/-0.08 mm); format: functional; details: time 25 hrs
Splenocyte [4] = assay: Immunomodulatory activity in Swiss albino mouse splenocytes assessed as cell viability at 10 uM by measuring inhibition of stimulation index incubated for 72 hrs in presence of mitogenic stimulus phytohaemagglutinin by MTT assay relative to indomethacin; format: functional; details: read-out: Activity
Rattus norvegicus [5] = assay: Anti-inflammatory activity in Wistar rat assessed as inhibition of carrageenan-induced paw edema at 10 mg/kg, ip pretreated for 1 hr followed by carrageenan challenge and measured after 2 hr relative to control (reference value: 0.00 +/-0.03 %); format: functional; details: time 3 hrs
Rattus norvegicus [6] = assay: Anti-inflammatory activity in Wistar rat assessed as inhibition of carrageenan-induced paw edema at 10 mg/kg, ip pretreated for 1 hr followed by carrageenan challenge and measured after 4 hr relative to control (reference value: 0.00 +/-0.4 %); format: functional; details: time 5 hrs
Pseudomonas aeruginosa = assay: Antibacterial activity against Pseudomonas aeruginosa ATCC 27853 incubated for 18 hrs by agar dilution assay; format: functional
Staphylococcus aureus = assay: Antibacterial activity against Staphylococcus aureus ATCC 25923 incubated for 18 hrs by agar dilution method; format: functional
Candida albicans = assay: Antifungal activity against Candida albicans incubated for 18 to 24 hrs by CLSI method; format: functional; details: time 18-24 hrs
Rattus norvegicus [7] = assay: Anti-inflammatory activity in Wistar rat assessed as inhibition of carrageenan-induced paw edema at 10 mg/kg, ip pretreated for 1 hr followed by carrageenan challenge and measured after 3 hr relative to control (reference value: 0.00 +/-0.1 %); format: functional; details: time 4 hrs
Rattus norvegicus [8] = assay: Antiinflammatory activity in Wistar rat model of carrageenan-induced paw edema assessed as reduction in thickness of paw edema at 10 mg/kg, ip pretreated for 1 hr followed by carrageenan challenge and measured after 2 hrs (reference value: 2.06 +/-0.09 mm); format: functional; details: time 3 hrs
Splenocyte [9] = assay: Immunomodulatory activity in Swiss albino mouse splenocytes assessed as cell viability at 10 uM by measuring stimulation index incubated for 72 hrs in presence of mitogenic stimulus phytohaemagglutinin by MTT assay (reference value: 1.00 +/- 0.24); format: functional
Rattus norvegicus [10] = assay: Antiinflammatory activity in Wistar rat model of carrageenan-induced paw edema assessed as reduction in thickness of paw edema at 10 mg/kg, ip pretreated for 1 hr followed by carrageenan challenge and measured after 4 hrs (reference value: 1.40 +/-0.10 mm); format: functional; details: time 5 hrs
Streptococcus pyogenes = assay: Antibacterial activity against Streptococcus pyogenes ATCC 19615 incubated for 18 hrs by agar dilution method; format: functional
Rattus norvegicus [11] = assay: Antiinflammatory activity in Wistar rat model of carrageenan-induced paw edema assessed as reduction in thickness of paw edema at 10 mg/kg, ip pretreated for 1 hr followed by carrageenan challenge and measured after 3 hrs (reference value: 1.79 +/-0.07 mm); format: functional; details: time 4 hrs
Rattus norvegicus [12] = assay: Anti-inflammatory activity in Wistar rat assessed as inhibition of carrageenan-induced paw edema at 10 mg/kg, ip pretreated for 1 hr followed by carrageenan challenge and measured after 24 hr relative to control (reference value: 0.00 +/-0.3 %); format: functional; details: time 25 hrs
Rattus norvegicus [13] = assay: Antiinflammatory activity in Wistar rat model of carrageenan-induced paw edema assessed as reduction in thickness of paw edema at 10 mg/kg, ip pretreated for 1 hr followed by carrageenan challenge and measured after 1 hr (reference value: 2.41 +/-0.05 mm); format: functional; details: time 1 hr after carrageenan
Peritoneal macrophage [14] = assay: Antiinflammatory activity in […] mouse Peritoneal macrophages assessed as reduction in LPS-induced NO production by measuring reduction in stimulation index at 10 uM preincubated for 1 hr followed by LPS stimulation measured after 24 hrs by Griess method (reference value: 27.31 +/- 2.56 uM); format: functional; details: time 25 hrs
Peritoneal macrophage [15] = assay: Antiinflammatory activity in […] mouse Peritoneal macrophages assessed as inhibition of LPS-induced NO production at 10 uM preincubated for 1 hr followed by LPS stimulation measured after 24 hrs by Griess method relative to control (reference value: 0.0 %); format: functional; design: scale not given: the % may be the effect or the level left; details: time 25 hrs

MIC (Salmonella typhimurium) | MIC (Pseudomonas aeruginosa) | MIC (Staphylococcus aureus) | MIC (Candida albicans) | MIC (Streptococcus pyogenes) | SMILES | inhibition in vivo at 10 mg/kg (Rattus norvegicus [1]) [%] | inhibition in vivo at 10 mg/kg (Rattus norvegicus [2]) [%] | Activity (Rattus norvegicus [3]) [mm] | viability at 10 µM (Splenocyte [4]) [%] | inhibition in vivo at 10 mg/kg (Rattus norvegicus [5]) [%] | inhibition in vivo at 10 mg/kg (Rattus norvegicus [6]) [%] | inhibition in vivo at 10 mg/kg (Rattus norvegicus [7]) [%] | Activity (Rattus norvegicus [8]) [mm] | Activity_index (Splenocyte [9]) | Activity (Rattus norvegicus [10]) [mm] | Activity (Rattus norvegicus [11]) [mm] | inhibition in vivo at 10 mg/kg (Rattus norvegicus [12]) [%] | Activity (Rattus norvegicus [13]) [mm] | Activity (Peritoneal macrophage [14]) [µM] | Activity (Peritoneal macrophage [15]) [%]
0.125 µg/mL and 0.134 µM | 0.25 µg/mL and 0.269 µM | 0.125 µg/mL and 0.134 µM | 2 µg/mL and 2.15 µM | 0.125 µg/mL and 0.134 µM | COc1cc(/C=C/C(=O)/C=C(O)/C=C/c2ccc(OC(=O)[C@H](Cc3ccccc3)NC(=O)OCc3ccccc3)c(OC)c2)ccc1OC(=O)[C@H](Cc1ccccc1)NC(=O)OCc1ccccc1 | 59 | 6 | 0.82 | 41.5 | 24 | 5 | 9 | 1.56 | 2.91 | 1.38 | 1.63 | 1 | 1 | 26.33 | 3.6
0.25 µg/mL and 0.29 µM | 0.125 µg/mL and 0.145 µM | 0.125 µg/mL and 0.145 µM | 0.5 µg/mL and 0.579 µM | 0.125 µg/mL and 0.145 µM | COc1cc(/C=C/C(=O)/C=C(O)/C=C/c2ccc(OC(=O)[C@H](CC(C)C)NC(=O)OCc3ccccc3)c(OC)c2)ccc1OC(=O)[C@H](CC(C)C)NC(=O)OCc1ccccc1 | 34 | 13 | 0.82 | 42.8 | 10 | 11 | 10 | 1.85 | 2.83 | 1.25 | 1.61 | 1 | 1.59 | 26.06 | 4.57
0.25 µg/mL and 0.29 µM | 1 µg/mL and 1.16 µM | 0.25 µg/mL and 0.29 µM | 1 µg/mL and 1.16 µM | 0.125 µg/mL and 0.145 µM | COc1cc(/C=C/C(=O)/C=C(O)/C=C/c2ccc(OC(=O)[C@H](Cc3ccccc3)NC(=O)OC(C)(C)C)c(OC)c2)ccc1OC(=O)[C@H](Cc1ccccc1)NC(=O)OC(C)(C)C | 39 | 68 | 0.41 | 47.2 | 44 | 59 | 53 | 1.16 | 2.56 | 0.58 | 0.85 | 51 | 1.47 | – | –
2.4 µg/mL (≈ 7.24 µM) | 4.8 µg/mL (≈ 14.5 µM) | – | – | – | O=C(O)c1cn(C2CC2)c2cc(N3CCNCC3)c(F)cc2c1=O [CIPROFLOXACIN] | – | – | – | – | – | – | – | – | – | – | – | – | – | – | –

The remaining lines, values behind:

SMILES | MIC (Salmonella typhimurium) | MIC (Pseudomonas aeruginosa) | MIC (Staphylococcus aureus) | MIC (Candida albicans) | MIC (Streptococcus pyogenes) | inhibition in vivo at 10 mg/kg (Rattus norvegicus [1]) [%] | inhibition in vivo at 10 mg/kg (Rattus norvegicus [2]) [%] | Activity (Rattus norvegicus [3]) [mm] | viability at 10 µM (Splenocyte [4]) [%] | inhibition in vivo at 10 mg/kg (Rattus norvegicus [5]) [%] | inhibition in vivo at 10 mg/kg (Rattus norvegicus [6]) [%] | inhibition in vivo at 10 mg/kg (Rattus norvegicus [7]) [%] | Activity (Rattus norvegicus [8]) [mm] | Activity_index (Splenocyte [9]) | Activity (Rattus norvegicus [10]) [mm] | Activity (Rattus norvegicus [11]) [mm] | inhibition in vivo at 10 mg/kg (Rattus norvegicus [12]) [%] | Activity (Rattus norvegicus [13]) [mm] | Activity (Peritoneal macrophage [14]) [µM] | Activity (Peritoneal macrophage [15]) [%]
COc1cc(/C=C/C(=O)/C=C(O)/C=C/c2ccc(OC(=O)[C@H](CCC(N)=O)NC(=O)OCc3ccccc3)c(OC)c2)ccc1OC(=O)[C@H](CCC(N)=O)NC(=O)OCc1ccccc1 | 0.5 µg/mL and 0.56 µM | 1 µg/mL and 1.12 µM | 0.5 µg/mL and 0.56 µM | 0.5 µg/mL and 0.56 µM | 0.125 µg/mL and 0.14 µM | 51 | 51 | 0.8 | 51.1 | 47 | 44 | 45 | 1.09 | 2.37 | 0.78 | 0.99 | 4 | 1.18 | – | –
COc1cc(/C=C/C(=O)/C=C(O)/C=C/c2ccc(OC(=O)[C@H](C)NC(=O)OCc3ccccc3)c(OC)c2)ccc1OC(=O)[C@H](C)NC(=O)OCc1ccccc1 | 0.5 µg/mL and 0.642 µM | 2 µg/mL and 2.57 µM | 0.25 µg/mL and 0.321 µM | 2 µg/mL and 2.57 µM | 0.125 µg/mL and 0.161 µM | 56 | 14 | 0.83 | 44.9 | 23 | 12 | 22 | 1.59 | 2.7 | 1.23 | 1.4 | 0 | 1.05 | 24.89 | 8.86
COc1cc(/C=C/C(=O)/C=C(O)/C=C/c2ccc(OC(=O)CNC(=O)OCc3ccccc3)c(OC)c2)ccc1OC(=O)CNC(=O)OCc1ccccc1 | 0.5 µg/mL and 0.666 µM | 1 µg/mL and 1.33 µM | 0.125 µg/mL and 0.166 µM | 0.5 µg/mL and 0.666 µM | 0.125 µg/mL and 0.166 µM | 64 | 39 | 0.83 | 45.8 | 32 | 34 | 37 | 1.41 | 2.64 | 0.92 | 1.13 | 0 | 0.87 | 24.55 | 10.11
COc1cc(/C=C/C(=O)/C=C(O)/C=C/c2ccc(OC(=O)[C@@H](NC(=O)OCc3ccccc3)C(C)C)c(OC)c2)ccc1OC(=O)[C@@H](NC(=O)OCc1ccccc1)C(C)C | 0.125 µg/mL and 0.15 µM | 0.25 µg/mL and 0.299 µM | 0.125 µg/mL and 0.15 µM | 1 µg/mL and 1.2 µM | 0.5 µg/mL and 0.599 µM | 51 | 14 | 0.81 | 42.1 | 20 | 12 | 19 | 1.65 | 2.87 | 1.23 | 1.45 | 2 | 1.17 | 25.76 | 5.68
C[C@@H]1[C@H](O)[C@@H](C)/C=C/C=C/C=C/C=C/C=C/C=C/C=C/[C@H](O[C@@H]2O[C@H](C)[C@@H](O)[C@H](N)[C@@H]2O)C[C@@H]2O[C@](O)(C[C@@H](O)C[C@@H](O)[C@H](O)CC[C@@H](O)C[C@@H](O)CC(=O)O[C@H]1C)C[C@H](O)[C@H]2C(=O)O [AMPHOTERICIN B] | – | – | – | 0.39 µg/mL and 0.422 µM | – | – | – | – | – | – | – | – | – | – | – | – | – | – | – | –
CCn1cc(C(=O)O)c(=O)c2cc(F)c(N3CCNCC3)cc21 [NORFLOXACIN] | 2.4 µg/mL (≈ 7.52 µM) | 4.8 µg/mL and 15000 µM | – | – | – | – | – | – | – | – | – | – | – | – | – | – | – | – | – | –
